In US7906507B2, “Oxadiazoanthracene compounds for the treatment of diabetes” (TransTech Pharma, Inc., priority 2008, dated 2011) one finds EC50 and Emax data, which are given here for 17 compounds.

The assay concerns the target T1, cloned human GLP-1 receptor (Homo sapiens, UniProt P43220).
T1 construct: expressed in transfected cells; host or cells: CHO or HEK-293 cells
Nature of the assay: Functional cell-based assay: cAMP functional assay. To be noted: for Emax: 0.5 h, percentage relative to maximal GLP-1-induced cAMP accumulation, na = not active in the assay, read-out: % activation. How it is done: Following overnight incubation of cells, media was removed, and compounds (at concentrations ranging from 0.0001 to 100 μM) were added to monolayer cells in Iscove's modified dulbecco's medium (IMDM), 100 μM RO 20-1724 PDE inhibitor, 0.1% BSA, 2% DMSO in a final volume of 100 μL, and incubated for 30 min at 37° C. 95% O2, 5% CO2 in a humidified incubator. cAMP was quantitated using a homogenous time-resolved fluorescence detection system (cAMP dynamic, CIS bio International).
A general note: Cyclic AMP is a second messenger, typically raised through Gs and lowered through Gi signalling.

T1 sequence (P43220 24-463): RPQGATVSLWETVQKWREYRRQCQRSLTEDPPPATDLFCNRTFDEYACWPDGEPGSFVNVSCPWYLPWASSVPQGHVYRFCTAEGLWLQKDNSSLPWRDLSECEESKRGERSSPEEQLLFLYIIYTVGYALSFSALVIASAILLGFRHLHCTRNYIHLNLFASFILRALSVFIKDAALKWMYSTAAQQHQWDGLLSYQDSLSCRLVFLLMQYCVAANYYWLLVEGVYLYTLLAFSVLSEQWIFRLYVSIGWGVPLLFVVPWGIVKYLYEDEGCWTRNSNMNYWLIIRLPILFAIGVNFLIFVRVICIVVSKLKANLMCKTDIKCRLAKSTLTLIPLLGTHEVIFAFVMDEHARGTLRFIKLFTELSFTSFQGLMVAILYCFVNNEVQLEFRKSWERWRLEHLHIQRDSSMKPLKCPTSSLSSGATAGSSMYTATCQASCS

In general, EC50 refers to the concentration at which the effect is half-maximal. A lower EC50 goes with higher potency in that assay. For `CC(=O)Nc1nc(C)c(S(=O)(=O)N2Cc3cc4c(cc3C[C@H]2C(=O)N[C@@H](Cc2ccc(-c3ccc(C#N)cc3)cc2)C(=O)O)NC(=O)C(c2ccc(OCc3ccc(Cl)c(Cl)c3)cc2)O4)s1` (single isomer, unassigned) [Example 81], the EC50 stood at 70 nM and the Emax was determined as 25%.

For the compound `CC[C@@H](c1ccccc1)N1Cc2cc3c(cc2C[C@H]1C(=O)N[C@@](C)(Cc1ccc(-c2ccc(C#N)cc2)cc1)C(=O)O)N(C)C(=O)C(c1ccc(OCc2ccc(Cl)c(Cl)c2)cc1)O3` (stereo in doubt) [Example 97, (S)-3-(4′-Cyano-biphenyl-4-yl)-2-{[(S)-3-[4-(3,4-dichloro-benzyloxy)-phenyl]-1-methyl-2-oxo-6-((S)-1-phenyl-propyl)-2,3,5,6,7,8-hexahydro-1H-4-oxa-1,6-diaza-anthracene-7-carbonyl]-amino}-2-methyl-propionic acid], a half-maximal response (EC50) required 38.2 nM and the Emax is 38%.

As for `N#Cc1ccc(-c2ccc(C[C@H](NC(=O)[C@@H]3Cc4cc5c(cc4CN3C(=O)OC3CCC(O)CC3)OC(c3ccc(OCc4ccc(Cl)c(Cl)c4)cc3)C(=O)N5)C(=O)O)cc2)cc1` (stereo partly drawn) [Example 1, (S)-7-[(S)-1-Carboxy-2-(4′-cyano-biphenyl-4-yl)-ethylcarbamoyl]-3-[4-(3,4-dichloro-benzyloxy)-phenyl]-2-oxo-1,2,3,5,7,8-hexahydro-4-oxa-1,6-diaza-anthracene-6-carboxylic acid 4-hydroxy-cyclohexyl ester], the EC50 was 900 nM and the Emax worked out at 15%.

On to `N#Cc1ccc(-c2ccc(C[C@H](NC(=O)[C@@H]3Cc4cc5c(cc4CN3C(=O)OC3CCC(O)C3)OC(c3ccc(OCc4ccc(Cl)c(Cl)c4)cc3)C(=O)N5)C(=O)O)cc2)cc1` (stereo partly drawn) [Example 2, (S)-7-[(S)-1-Carboxy-2-(4′-cyano-biphenyl-4-yl)-ethylcarbamoyl]-3-[4-(3,4-dichloro-benzyloxy)-phenyl]-2-oxo-1,2,3,5,7,8-hexahydro-4-oxa-1,6-diaza-anthracene-6-carboxylic acid 3-hydroxy-cyclopentyl ester], for which the EC50 came out at 670 nM and the Emax amounted to 7.8%.

`N#Cc1ccc(-c2ccc(C[C@H](NC(=O)[C@@H]3Cc4cc5c(cc4CN3C(=O)c3cccnc3)OC(c3ccc(OCc4ccc(Cl)c(Cl)c4)cc3)C(=O)N5)C(=O)O)cc2)cc1` (stereo partly drawn) [Example 4, (S)-3-(4′-Cyano-biphenyl-4-yl)-2-{[(S)-3-[4-(3,4-dichloro-benzyloxy)-phenyl]-2-oxo-6-(pyridine-3-carbonyl)-2,3,5,6,7,8-hexahydro-1H-4-oxa-1,6-diaza-anthracene-7-carbonyl]-amino}-propionic acid]: the midpoint of the response, the EC50, lay at 3800 nM and the Emax is 20%.

For `N#Cc1ccc(-c2ccc(C[C@H](NC(=O)[C@@H]3Cc4cc5c(cc4CN3C(=O)[C@@H]3CCCO3)OC(c3ccc(OCc4ccc(Cl)c(Cl)c4)cc3)C(=O)N5)C(=O)O)cc2)cc1` (stereo partly drawn) [Example 5, (S)-3-(4′-Cyano-biphenyl-4-yl)-2-{[(S)-3-[4-(3,4-dichloro-benzyloxy)-phenyl]-2-oxo-6-((S)-tetrahydro-furan-2-carbonyl)-2,3,5,6,7,8-hexahydro-1H-4-oxa-1,6-diaza-anthracene-7-carbonyl]-amino}-propionic acid], the 50% effective concentration (EC50) was 30000 nM and the Emax was 18%.

As to `N#Cc1ccc(-c2ccc(C[C@H](NC(=O)[C@@H]3Cc4cc5c(cc4CN3C(=O)[C@H]3CCCO3)OC(c3ccc(OCc4ccc(Cl)c(Cl)c4)cc3)C(=O)N5)C(=O)O)cc2)cc1` (stereo partly drawn) [Example 6, (S)-3-(4′-Cyano-biphenyl-4-yl)-2-{[(S)-3-[4-(3,4-dichloro-benzyloxy)-phenyl]-2-oxo-6-((R)-tetrahydro-furan-2-carbonyl)-2,3,5,6,7,8-hexahydro-1H-4-oxa-1,6-diaza-anthracene-7-carbonyl]-amino}-propionic acid], the response was half-maximal at 3600 nM (EC50) and the Emax was determined as 7%.

Take `N#Cc1ccc(-c2ccc(C[C@H](NC(=O)[C@@H]3Cc4cc5c(cc4CN3CC#Cc3ccccc3)OC(c3ccc(OCc4ccc(Cl)c(Cl)c4)cc3)C(=O)N5)C(=O)O)cc2)cc1` (stereo partly drawn) [Example 7, (S)-3-(4′-Cyano-biphenyl-4-yl)-2-{[(S)-3-[4-(3,4-dichloro-benzyloxy)-phenyl]-2-oxo-6-(3-phenyl-prop-2-ynyl)-2,3,5,6,7,8-hexahydro-1H-4-oxa-1,6-diaza-anthracene-7-carbonyl]-amino}-propionic acid]: the response was half-maximal at 474 nM (EC50) and the Emax stood at 35%.

Turning to `CC(C)OC(=O)N1Cc2cc3c(cc2C[C@H]1C(=O)N[C@@H](Cc1ccc(-c2ccc(C#N)cc2)cc1)C(=O)O)NC(=O)C(c1ccc(OCc2ccc(Cl)c(Cl)c2)cc1)O3` (stereo partly drawn) [Example 8, (S)-7-[(S)-1-Carboxy-2-(4′-cyano-biphenyl-4-yl)-ethylcarbamoyl]-3-[4-(3,4-dichloro-benzyloxy)-phenyl]-2-oxo-1,2,3,5,7,8-hexahydro-4-oxa-1,6-diaza-anthracene-6-carboxylic acid isopropyl ester], it took 134 nM to reach a half-maximal effect (EC50) and the Emax was determined as 64%.

For `CC(C)COC(=O)N1Cc2cc3c(cc2C[C@H]1C(=O)N[C@@H](Cc1ccc(-c2ccc(C#N)cc2)cc1)C(=O)O)NC(=O)C(c1ccc(OCc2ccc(Cl)c(Cl)c2)cc1)O3` (stereo partly drawn) [Example 9, (S)-7-[(S)-1-Carboxy-2-(4′-cyano-biphenyl-4-yl)-ethylcarbamoyl]-3-[4-(3,4-dichloro-benzyloxy)-phenyl]-2-oxo-1,2,3,5,7,8-hexahydro-4-oxa-1,6-diaza-anthracene-6-carboxylic acid isobutyl ester], the midpoint of the response, the EC50, lay at 500 nM and the Emax was determined as 54%.

Consider `CC(C)(C)COC(=O)N1Cc2cc3c(cc2C[C@H]1C(=O)N[C@@H](Cc1ccc(-c2ccc(C#N)cc2)cc1)C(=O)O)NC(=O)C(c1ccc(OCc2ccc(Cl)c(Cl)c2)cc1)O3` (stereo partly drawn) [Example 10, (S)-7-[(S)-1-Carboxy-2-(4′-cyano-biphenyl-4-yl)-ethylcarbamoyl]-3-[4-(3,4-dichloro-benzyloxy)-phenyl]-2-oxo-1,2,3,5,7,8-hexahydro-4-oxa-1,6-diaza-anthracene-6-carboxylic acid 2,2-dimethyl-propyl ester], for which a half-maximal effect (EC50) was put at 418 nM and the Emax was 51%.

In the case of `N#Cc1ccc(-c2ccc(C[C@H](NC(=O)[C@@H]3Cc4cc5c(cc4CN3C(=O)OC3CCOCC3)OC(c3ccc(OCc4ccc(Cl)c(Cl)c4)cc3)C(=O)N5)C(=O)O)cc2)cc1` (stereo partly drawn) [Example 11, (S)-7-[(S)-1-Carboxy-2-(4′-cyano-biphenyl-4-yl)-ethylcarbamoyl]-3-[4-(3,4-dichloro-benzyloxy)-phenyl]-2-oxo-1,2,3,5,7,8-hexahydro-4-oxa-1,6-diaza-anthracene-6-carboxylic acid tetrahydro-pyran-4-yl ester], the EC50 stood at 606 nM and the Emax stood at 71%.

In the case of `N#Cc1ccc(-c2ccc(C[C@H](NC(=O)[C@@H]3Cc4cc5c(cc4CN3C(=O)C3CCC3)OC(c3ccc(OCc4ccc(Cl)c(Cl)c4)cc3)C(=O)N5)C(=O)O)cc2)cc1` (stereo partly drawn) [Example 12, (S)-3-(4′-Cyano-biphenyl-4-yl)-2-({(S)-6-cyclobutanecarbonyl-3-[4-(3,4-dichloro-benzyloxy)-phenyl]-2-oxo-2,3,5,6,7,8-hexahydro-1H-4-oxa-1,6-diaza-anthracene-7-carbonyl}-amino)-propionic acid], the EC50 came out at 427 nM and the Emax came out at 61%.

As for `CC(C)C(=O)N1Cc2cc3c(cc2C[C@H]1C(=O)N[C@@H](Cc1ccc(-c2ccc(C#N)cc2)cc1)C(=O)O)NC(=O)C(c1ccc(OCc2ccc(Cl)c(Cl)c2)cc1)O3` (stereo partly drawn) [Example 13, (S)-3-(4′-Cyano-biphenyl-4-yl)-2-({(S)-3-[4-(3,4-dichloro-benzyloxy)-phenyl]-6-isobutyryl-2-oxo-2,3,5,6,7,8-hexahydro-1H-4-oxa-1,6-diaza-anthracene-7-carbonyl}-amino)-propionic acid], the EC50 was 1210 nM and the Emax was determined as 59%.

For the compound `N#Cc1ccc(-c2ccc(C[C@H](NC(=O)[C@@H]3Cc4cc5c(cc4CN3S(=O)(=O)c3ccccc3)OC(c3ccc(OCc4ccc(Cl)c(Cl)c4)cc3)C(=O)N5)C(=O)O)cc2)cc1` (stereo partly drawn) [Example 14, (S)-2-({(S)-6-Benzenesulfonyl-3-[4-(3,4-dichloro-benzyloxy)-phenyl]-2-oxo-2,3,5,6,7,8-hexahydro-1H-4-oxa-1,6-diaza-anthracene-7-carbonyl}-amino)-3-(4′-cyano-biphenyl-4-yl)-propionic acid], the EC50 is 450 nM and the Emax was 77%.

As to `N#Cc1ccc(-c2ccc(C[C@H](NC(=O)[C@@H]3Cc4cc5c(cc4CN3C(=O)C3CCCC3)OC(c3ccc(OCc4ccc(Cl)c(Cl)c4)cc3)C(=O)N5)C(=O)O)cc2)cc1` (stereo partly drawn) [Example 16, (S)-3-(4′-Cyano-biphenyl-4-yl)-2-({(S)-6-cyclopentanecarbonyl-3-[4-(3,4-dichloro-benzyloxy)-phenyl]-2-oxo-2,3,5,6,7,8-hexahydro-1H-4-oxa-1,6-diaza-anthracene-7-carbonyl}-amino)-propionic acid], the EC50 was 657 nM and the Emax was 78%.

As for `N#Cc1ccc(-c2ccc(C[C@H](NC(=O)[C@@H]3Cc4cc5c(cc4CN3C(=O)N3CCCCC3)OC(c3ccc(OCc4ccc(Cl)c(Cl)c4)cc3)C(=O)N5)C(=O)O)cc2)cc1` (stereo partly drawn) [Example 17, (S)-3-(4′-Cyano-biphenyl-4-yl)-2-{[(S)-3-[4-(3,4-dichloro-benzyloxy)-phenyl]-2-oxo-6-(piperidine-1-carbonyl)-2,3,5,6,7,8-hexahydro-1H-4-oxa-1,6-diaza-anthracene-7-carbonyl]-amino}-propionic acid], the 50% effective concentration (EC50) came to 699 nM and the Emax amounted to 80%.
